Assays:
[1] = target: human Farnesoid X receptor ligand-binding domain/Gal4 DNA binding domain chimera (Homo sapiens (Human), UniProt Q96RI1); assay: Cell-based assay of FXR activation (FXR-UAS-bla HEK 293T beta-lactamase reporter); conditions: cellular FXR beta-lactamase reporter assay; for pEC50 / EC50: FXR-UAS-bla HEK 293T cells, 16 h, pEC50 = -log EC50; for Emax: HEK-293T, read-out: % Efficacy
Outline: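 HEK 293T cells stably expressing a Gal4-fused human FXR LBD and a UAS-driven beta-lactamase reporter were incubated with serially diluted compounds for 16 h at 37 °C in phenol red-free DMEM with 2% charcoal-stripped FBS. CCF4 FRET read-out: excitation 409 nm, emission 447 nm. pEC50 comes from a 3-parameter logistic fit, and efficacy is given as % of GW4064.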

[2] = target: ligand binding domain of human FXR (Homo sapiens (Human), UniProt Q96RI1); assay: FXR ligand binding assay (LanthaScreen TR-FRET, SRC2-2 peptide recruitment); conditions: for pEC50: -log EC50, concentration required to produce 50% activation; for Emax: read-out: % Efficacy
[3] = extent of activation relative to GW4064

human Farnesoid X receptor ligand-binding domain/Gal4 DNA binding domain chimera, sequence (Q96RI1 262-486, change not shown): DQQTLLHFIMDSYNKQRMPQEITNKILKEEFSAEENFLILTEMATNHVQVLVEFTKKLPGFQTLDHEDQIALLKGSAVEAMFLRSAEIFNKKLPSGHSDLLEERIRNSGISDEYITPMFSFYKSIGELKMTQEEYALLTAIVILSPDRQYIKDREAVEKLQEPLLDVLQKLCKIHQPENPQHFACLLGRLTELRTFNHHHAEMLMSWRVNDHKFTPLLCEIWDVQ
human Farnesoid X receptor ligand-binding domain/Gal4 DNA binding domain chimera, sequence (P04386 1-147 partner): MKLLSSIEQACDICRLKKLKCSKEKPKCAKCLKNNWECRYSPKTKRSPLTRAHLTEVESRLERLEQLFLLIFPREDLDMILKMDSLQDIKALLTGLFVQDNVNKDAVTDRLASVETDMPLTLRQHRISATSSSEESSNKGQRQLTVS
ligand binding domain of human FXR, sequence (Q96RI1 262-486): as the sequence (Q96RI1 262-486, change not shown) above

Row | SMILES | pEC50 [1] | % Efficacy [1, 3] [%] | pEC50 [2] | % Efficacy [2, 3] [%] | EC50 [1] [nM] | Emax [2, 3] [%] | Emax [1, 3] [%]
1 | O=C(NS(=O)(=O)[C@H]1CC[C@H](O)CC1)c1ccc(N2C[C@@H]3C[C@H]2C[C@H]3OCc2c(-c3c(Cl)cccc3Cl)noc2C2CC2)cc1 [Compound I-221, 4-[(1S,4S,5R)-5-{[5-cyclopropyl-3-(2,6-dichlorophenyl)-1,2-oxazol-4-yl]methoxy}-2-azabicyclo[2.2.1]heptan-2-yl]-N-{[(1r,4r)-4-hydroxycyclohexyl]sulfonyl}benzamide] | 9.5 | 108 | 8.8 | 147 |  |  | 
2 | O=C(NS(=O)(=O)CCCCCCCCCCNC(=O)[C@H](O)[C@@H](O)[C@H](O)[C@H](O)CO)c1ccc(N2C[C@@H]3C[C@H]2C[C@H]3OCc2c(-c3c(Cl)cccc3Cl)noc2C2CC2)c(F)c1 [Compound I-223, (2R,3S,4R,5R)—N-{10-[({4-[(1S,4S,5R)-5-{[5-cyclopropyl-3-(2,6-dichlorophenyl)-1,2-oxazol-4-yl]methoxy}-2-azabicyclo[2.2.1]heptan-2-yl]-3-fluorophenyl}formamido)sulfonyl]decyl}-2,3,4,5,6-pentahydroxyhexanamide] |  |  | 8.6 |  | < 31.6 | 144 | 
3 | CC(=O)NCCCCCCCCCCS(=O)(=O)NC(=O)c1ccc(N2C[C@@H]3C[C@H]2C[C@H]3OCc2c(-c3c(Cl)cccc3Cl)noc2C2CC2)c(F)c1 [Compound I-224, N-{10-[({4-[(1S,4S,5R)-5-{[5-cyclopropyl-3-(2,6-dichlorophenyl)-1,2-oxazol-4-yl]methoxy}-2-azabicyclo[2.2.1]heptan-2-yl]-3-fluorophenyl}formamido)sulfonyl]decyl}acetamide] |  |  | 8.1 |  | 2.51 | 155 | 104
4 | COCC(=O)NCCCCCCCCCCS(=O)(=O)NC(=O)c1ccc(N2C[C@@H]3C[C@H]2C[C@H]3OCc2c(-c3c(Cl)cccc3Cl)noc2C2CC2)c(F)c1 [Compound I-225, N-{10-[({4-[(1S,4S,5R)-5-{[5-cyclopropyl-3-(2,6-dichlorophenyl)-1,2-oxazol-4-yl]methoxy}-2-azabicyclo[2.2.1]heptan-2-yl]-3-fluorophenyl}formamido)sulfonyl]decyl}-2-methoxyacetamide] |  |  | 9.5 |  | 2 | 166 | 103
5 | CC[N+](C)(CC)CCCCCCCCCCS(=O)(=O)NC(=O)c1ccc(N2C[C@@H]3C[C@H]2C[C@H]3OCc2c(-c3c(Cl)cccc3Cl)noc2C2CC2)c(F)c1 [Compound I-226] | 6.6 |  |  |  |  | 148 | 152
6 | O=C(NS(=O)(=O)CCCCCCCCCCN1CCC1)c1ccc(N2C[C@@H]3C[C@H]2C[C@H]3OCc2c(-c3c(Cl)cccc3Cl)noc2C2CC2)c(F)c1 [Compound I-227, N-[10-(azetidin-1-yl)decanesulfonyl]-4-[(1S,4S,5R)-5-{[5-cyclopropyl-3-(2,6-dichlorophenyl)-1,2-oxazol-4-yl]methoxy}-2-azabicyclo[2.2.1]heptan-2-yl]-3-fluorobenzamide] |  |  | 8.1 |  | 1 | 163 | 97
7 | O=C(NS(=O)(=O)C1CC1)c1ccc(N2C[C@@H]3C[C@H]2C[C@H]3OCc2c(C3CCC4(CC3)CC4)noc2C2CC2)cc1 [Compound I-228, 4-((1S,4S,5R)-5-((5-cyclopropyl-3-(spiro[2.5]octan-6-yl)isoxazol-4-yl)methoxy)-2-azabicyclo[2.2.1]heptan-2-yl)-N-(cyclopropylsulfonyl)benzamide] |  |  | 7 |  | 20 | 134 | 105
8 | O=C(NS(=O)(=O)C1CC1)c1ccc(N2C[C@@H]3C[C@H]2C[C@H]3OCc2c(C3CCC4(CC3)CC4)noc2C2CC2)c(F)c1 [Compound I-229, 4-((1S,4S,5R)-5-((5-cyclopropyl-3-(spiro[2.5]octan-6-yl)isoxazol-4-yl)methoxy)-2-azabicyclo[2.2.1]heptan-2-yl)-N-(cyclopropylsulfonyl)-3-fluorobenzamide] |  |  | 7.4 |  | 39.8 | 150 | 101
9 | O=C(NS(=O)(=O)C1CCOCC1)c1ccc(N2C[C@@H]3C[C@H]2C[C@H]3OCc2c(C3CCC4(CC3)CC4)noc2C2CC2)c(F)c1 [Compound I-230, 4-((1S,4S,5R)-5-((5-cyclopropyl-3-(spiro[2.5]octan-6-yl)isoxazol-4-yl)methoxy)-2-azabicyclo[2.2.1]heptan-2-yl)-3-fluoro-N-((tetrahydro-2H-pyran-4-yl)sulfonyl)benzamide] |  |  | 8 |  | 6.31 | 150 | 104
10 | O=C(NS(=O)(=O)C1CC1)c1ccc(N2C[C@H]3C[C@@H]2C[C@@H]3OCc2c(-c3c(Cl)cccc3Cl)noc2C2CC2)c(F)c1 [Compound I-231, 4-((1R,4R,5S)-5-((5-cyclopropyl-3-(2,6-dichlorophenyl)isoxazol-4-yl)methoxy)-2-azabicyclo[2.2.1]heptan-2-yl)-N-(cyclopropylsulfonyl)-3-fluorobenzamide] |  |  | 8.4 |  | 15.8 | 110 | 106
11 | O=C(NS(=O)(=O)C1CC1)c1ccc(N2C[C@H]3C[C@@H]2C[C@@H]3OCc2c(-c3c(Cl)cccc3Cl)noc2C2CC2)cc1 [Compound I-232, 4-((1R,4R,5S)-5-((5-cyclopropyl-3-(2,6-dichlorophenyl)isoxazol-4-yl)methoxy)-2-azabicyclo[2.2.1]heptan-2-yl)-N-(cyclopropylsulfonyl)benzamide] |  |  | 8.1 |  | 25.1 | 126 | 93
12 | Cn1nc(C(=O)NS(=O)(=O)C2CC2)cc1N1C[C@@H]2C[C@H]1C[C@H]2OCc1c(-c2c(Cl)cccc2Cl)noc1C1CC1 [Compound I-233, N-(cyclopropanesulfonyl)-5-[(1S,4S,5R)-5-{[5-cyclopropyl-3-(2,6-dichlorophenyl)-1,2-oxazol-4-yl]methoxy}-2-azabicyclo[2.2.1]heptan-2-yl]-1-methyl-1H-pyrazole-3-carboxamide] |  |  | 7.8 |  | < 31.6 | 77 | 
13 | O=C(NS(=O)(=O)C1CC1)c1ccc([N+]2([O-])C[C@@H]3C[C@H]2C[C@H]3OCc2c(-c3c(Cl)cccc3Cl)noc2C2CC2)cc1 (stereo partly drawn) [Compound I-234, (1S,4S,5R)-2-{4-[(cyclopropanesulfonyl)carbamoyl]phenyl}-5-{[5-cyclopropyl-3-(2,6-dichlorophenyl)-1,2-oxazol-4-yl]methoxy}-2-azabicyclo[2.2.1]heptan-2-ium-2-olate] |  |  | 8.1 |  | 1.58 | 146 | 102
14 | O=C(CCc1ccc(N2C[C@@H]3C[C@H]2C[C@H]3OCc2c(-c3c(F)cccc3Cl)noc2C2CC2)c(F)c1)NS(=O)(=O)C1CCOCC1 [Compound I-235, 3-{4-[(1S,4S,5R)-5-{[3-(2-chloro-6-fluorophenyl)-5-cyclopropyl-1,2-oxazol-4-yl]methoxy}-2-azabicyclo[2.2.1]heptan-2-yl]-3-fluorophenyl}-N-(oxane-4-sulfonyl)propanamide] |  |  | 8.2 |  | 3.98 | 176 | 94

From patent US10793568B2, “Hormone receptor modulators for treating metabolic conditions and disorders” (ARDELYX, INC., priority 2016, dated 2020)
